{
  "source": "PubChem BioAssay (NCI)",
  "assay_in_all_cases": "NCI anticancer screen, dose series, 48 h",
  "key": {"U251 CNS": {"system": "U251 CNS"}, "SF-268 CNS": {"system": "SF-268 CNS"}, "RXF 393 renal": {"system": "RXF 393 renal"}, "SK-MEL-28 melanoma": {"system": "SK-MEL-28 melanoma"}, "HCC-2998 colon": {"system": "HCC-2998 colon"}, "BT-549 breast": {"system": "BT-549 breast"}, "NCI-H226 lung": {"system": "NCI-H226 lung"}, "HOP-92 NSCLC": {"system": "HOP-92 NSCLC"}, "HL-60(TB) leukemia": {"system": "HL-60(TB) leukemia"}, "CCRF-CEM leukemia": {"system": "CCRF-CEM leukemia"}, "HS 578T breast": {"system": "HS 578T breast"}, "SW-620 colon": {"system": "SW-620 colon"}, "OVCAR-5 ovarian": {"system": "OVCAR-5 ovarian"}, "PC-3 prostate": {"system": "PC-3 prostate"}, "UACC-257 melanoma": {"system": "UACC-257 melanoma"}, "SR leukemia": {"system": "SR leukemia"}, "SF-295 CNS": {"system": "SF-295 CNS"}, "MDA-MB-435": {"system": "MDA-MB-435"}, "NCI-H23 lung": {"system": "NCI-H23 lung"}, "EKVX NSCLC": {"system": "EKVX NSCLC"}, "IGROV1 ovarian": {"system": "IGROV1 ovarian"}, "RPMI-8226 leukemia": {"system": "RPMI-8226 leukemia"}, "MDA-N": {"system": "MDA-N"}, "NCI/ADR-RES ovarian": {"system": "NCI/ADR-RES ovarian"}, "HCT-15 colon": {"system": "HCT-15 colon"}, "SK-MEL-2 melanoma": {"system": "SK-MEL-2 melanoma"}, "NCI-H522 lung": {"system": "NCI-H522 lung"}, "ACHN renal": {"system": "ACHN renal"}, "SN12C renal": {"system": "SN12C renal"}, "M14 melanoma": {"system": "M14 melanoma"}, "COLO 205 colon": {"system": "COLO 205 colon"}, "CAKI-1 renal": {"system": "CAKI-1 renal"}, "T-47D breast": {"system": "T-47D breast"}, "NCI-H460 lung": {"system": "NCI-H460 lung"}, "786-0 renal": {"system": "786-0 renal"}, "OVCAR-3 ovarian": {"system": "OVCAR-3 ovarian"}, "A498 renal": {"system": "A498 renal"}, "HOP-62 NSCLC": {"system": "HOP-62 NSCLC"}, "OVCAR-4 ovarian": {"system": "OVCAR-4 ovarian"}, "MOLT-4 leukemia": {"system": "MOLT-4 leukemia"}, "UO-31 renal": {"system": "UO-31 renal"}, "HT29 colon": {"system": "HT29 colon"}, "OVCAR-8 ovarian": {"system": "OVCAR-8 ovarian"}, "MDA-MB-231 breast": {"system": "MDA-MB-231 breast"}, "SNB-19 CNS": {"system": "SNB-19 CNS"}, "TK-10 renal": {"system": "TK-10 renal"}, "SK-MEL-5 melanoma": {"system": "SK-MEL-5 melanoma"}, "A549 NSCLC": {"system": "A549 NSCLC"}, "KM12 colon": {"system": "KM12 colon"}, "SF-539 CNS": {"system": "SF-539 CNS"}, "LOX IMVI melanoma": {"system": "LOX IMVI melanoma"}, "UACC-62 melanoma": {"system": "UACC-62 melanoma"}, "MCF7 breast": {"system": "MCF7 breast"}, "HCT-116 colon": {"system": "HCT-116 colon"}, "SK-OV-3 ovarian": {"system": "SK-OV-3 ovarian"}, "MALME-3M melanoma": {"system": "MALME-3M melanoma"}, "DU-145 prostate": {"system": "DU-145 prostate"}},
  "note": "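1) Cells in 96-well plates. 2) Compound, 48 h, 5 concentrations. 3) Linear interpolation between surrounding doses. 4) Unreached endpoint = highest concentration. Definition used: TGI = concentration required for complete inhibition of growth.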",
  "data": [
    {"compound": "CC=CCOc1cc(NC(=S)OC(C)C)ccc1Cl", "note": "(mixture of isomers)", "values": [
      {"measurement": "TGI", "setting": "U251 CNS", "value": 32.8, "unit": "µM"},
      {"measurement": "TGI", "setting": "SF-268 CNS", "value": 37.9, "unit": "µM"},
      {"measurement": "TGI", "setting": "RXF 393 renal", "value": 30.8, "unit": "µM"},
      {"measurement": "TGI", "setting": "SK-MEL-28 melanoma", "value": 33.7, "unit": "µM"},
      {"measurement": "TGI", "setting": "HCC-2998 colon", "value": 30.3, "unit": "µM"},
      {"measurement": "TGI", "setting": "BT-549 breast", "value": 38.6, "unit": "µM"},
      {"measurement": "TGI", "setting": "NCI-H226 lung", "value": 33, "unit": "µM"},
      {"measurement": "TGI", "setting": "HOP-92 NSCLC", "value": 24.9, "unit": "µM"},
      {"measurement": "TGI", "setting": "HL-60(TB) leukemia", "value": 55.7, "unit": "µM"},
      {"measurement": "TGI", "setting": "CCRF-CEM leukemia", "value": 64.3, "unit": "µM"},
      {"measurement": "TGI", "setting": "HS 578T breast", "value": 43.9, "unit": "µM"},
      {"measurement": "TGI", "setting": "SW-620 colon", "value": 35.3, "unit": "µM"},
      {"measurement": "TGI", "setting": "OVCAR-5 ovarian", "value": 44.5, "unit": "µM"},
      {"measurement": "TGI", "setting": "PC-3 prostate", "value": 34.3, "unit": "µM"},
      {"measurement": "TGI", "setting": "UACC-257 melanoma", "value": 46.5, "unit": "µM"},
      {"measurement": "TGI", "setting": "SR leukemia", "value": 44.6, "unit": "µM"},
      {"measurement": "TGI", "setting": "SF-295 CNS", "value": 35.5, "unit": "µM"},
      {"measurement": "TGI", "setting": "MDA-MB-435", "value": 49.9, "unit": "µM"},
      {"measurement": "TGI", "setting": "NCI-H23 lung", "value": 35.1, "unit": "µM"},
      {"measurement": "TGI", "setting": "EKVX NSCLC", "value": 36.6, "unit": "µM"},
      {"measurement": "TGI", "setting": "IGROV1 ovarian", "value": 43.2, "unit": "µM"},
      {"measurement": "TGI", "setting": "RPMI-8226 leukemia", "value": "> 100", "unit": "µM"},
      {"measurement": "TGI", "setting": "MDA-N", "value": 35.4, "unit": "µM"},
      {"measurement": "TGI", "setting": "NCI/ADR-RES ovarian", "value": 31.9, "unit": "µM"},
      {"measurement": "TGI", "setting": "HCT-15 colon", "value": 33.7, "unit": "µM"},
      {"measurement": "TGI", "setting": "SK-MEL-2 melanoma", "value": 28.6, "unit": "µM"},
      {"measurement": "TGI", "setting": "NCI-H522 lung", "value": 28, "unit": "µM"},
      {"measurement": "TGI", "setting": "ACHN renal", "value": 31.6, "unit": "µM"},
      {"measurement": "TGI", "setting": "SN12C renal", "value": 29, "unit": "µM"},
      {"measurement": "TGI", "setting": "M14 melanoma", "value": 63.3, "unit": "µM"},
      {"measurement": "TGI", "setting": "COLO 205 colon", "value": 33.3, "unit": "µM"},
      {"measurement": "TGI", "setting": "CAKI-1 renal", "value": 22.8, "unit": "µM"},
      {"measurement": "TGI", "setting": "T-47D breast", "value": 35.7, "unit": "µM"},
      {"measurement": "TGI", "setting": "NCI-H460 lung", "value": 31.8, "unit": "µM"},
      {"measurement": "TGI", "setting": "786-0 renal", "value": 31.6, "unit": "µM"},
      {"measurement": "TGI", "setting": "OVCAR-3 ovarian", "value": 38.1, "unit": "µM"},
      {"measurement": "TGI", "setting": "A498 renal", "value": 30.7, "unit": "µM"},
      {"measurement": "TGI", "setting": "HOP-62 NSCLC", "value": 45.4, "unit": "µM"},
      {"measurement": "TGI", "setting": "OVCAR-4 ovarian", "value": 32.4, "unit": "µM"},
      {"measurement": "TGI", "setting": "MOLT-4 leukemia", "value": 38.8, "unit": "µM"},
      {"measurement": "TGI", "setting": "UO-31 renal", "value": 24.7, "unit": "µM"},
      {"measurement": "TGI", "setting": "HT29 colon", "value": 28.7, "unit": "µM"},
      {"measurement": "TGI", "setting": "OVCAR-8 ovarian", "value": 33.9, "unit": "µM"},
      {"measurement": "TGI", "setting": "MDA-MB-231 breast", "value": 51.5, "unit": "µM"},
      {"measurement": "TGI", "setting": "SNB-19 CNS", "value": 56.6, "unit": "µM"},
      {"measurement": "TGI", "setting": "TK-10 renal", "value": 29.2, "unit": "µM"},
      {"measurement": "TGI", "setting": "SK-MEL-5 melanoma", "value": 33.1, "unit": "µM"},
      {"measurement": "TGI", "setting": "A549 NSCLC", "value": 33.1, "unit": "µM"},
      {"measurement": "TGI", "setting": "KM12 colon", "value": 33.4, "unit": "µM"},
      {"measurement": "TGI", "setting": "SF-539 CNS", "value": 36.1, "unit": "µM"},
      {"measurement": "TGI", "setting": "LOX IMVI melanoma", "value": 35.8, "unit": "µM"},
      {"measurement": "TGI", "setting": "UACC-62 melanoma", "value": 30.7, "unit": "µM"},
      {"measurement": "TGI", "setting": "MCF7 breast", "value": 38.2, "unit": "µM"},
      {"measurement": "TGI", "setting": "HCT-116 colon", "value": 33.6, "unit": "µM"},
      {"measurement": "TGI", "setting": "SK-OV-3 ovarian", "value": 45.8, "unit": "µM"},
      {"measurement": "TGI", "setting": "MALME-3M melanoma", "value": 29.6, "unit": "µM"},
      {"measurement": "TGI", "setting": "DU-145 prostate", "value": 76.9, "unit": "µM"}
    ]}
  ]
}
